In one series the target is ROMK potassium channel (Homo sapiens (Human), UniProt P48048). Nature of the series: Electrophysiological manual patch clamp on ROMK potassium channel (human ROMK/HEK293 cells). It counts as cell-based. The text has this: The experiment was designed to test the effect of compounds on ROMK potassium channel in HEK 293 in vitro. ROMK potassium channel is stably expressed on the HEK293 cells of the present application. After the potassium ion current was stabilized, the effect of the present compound on the potassium channel was obtained by comparing the potassium current obtained before and after the use of the present compound at different concentrations.
(2) Human ROMK/HEK293 cell: HEK293 cell line stably expressing the ROMK channel transfected by human ROMK cDNA (NCBI SEQ ID NO. NM-000220.4);
(3) Extracellular fluid (mM): NaCl, 137; KCl, 4; CaCl2, 1.8; MgCl2, 1; HEPES, 10; glucose, 10; pH 7.4 (NaOH titration); and
(4) Intracellular fluid (mM): K Aspartate, 130; MgCl2, 5; EGTA 5; HEPES, 10; Tris-ATP, 4; pH 7.2 (KOH titration).
Test compounds were dissolved in dimethyl sulfoxide (DMSO) and then stocked at room temperature. […]
A manual patch clamp system was used for whole-cell current record in this experiment. […] After the ROMK potassium current recorded in the above steps was stabilized under continuous perfusion with extracellular liquid in the recording bath, the drug to be tested was perfused until the inhibition of the drug on the ROMK current reached a steady state. […]
The data were analyzed by HEKA Patchmaster, XLFit and Graphpad Prism data analysis software.

A short description of series [1]: Pharmacokinetics assay in SD rats, intragastric administration. The series is classed as in vivo. To be noted: both sexes, Sprague-Dawley, rat, plasma, oral 5 mg/kg. The protocol:
Rats were used as test animals. The drug concentration in plasma at different time points was determined by LC/MS/MS after administration of the compounds to rats. The pharmacokinetic behavior of the present compounds was studied and evaluated in rats.
Four (4) healthy adult Sprague-Dawley (SD) rats, half male and half female, were purchased from SINO-BRITSH SIPPR/BK LAB. ANIMAL LTD., CO, with Certificate No.: SCXK (Shanghai) 2008-0016.
The appropriate amount of the test compounds was weighed, and added with 0.5% CMC-Na to a final volume to prepare a 0.5 mg/mL suspension by ultrasonication.
Following fasting overnight, 4 SD rats, half male and half female were administered intragastrically a dose of 5.0 mg/kg and an administration volume of 10 mL/kg.
Blood (0.1 mL) was sampled from orbital sinus before administration and 0.5 h, 1.0 h, 2.0 h, 4.0 h, 6.0 h, 8.0 h, 11.0 h, and 24.0 h after administration. The samples were stored in EDTA anticoagulation tubes, and centrifuged for 10 minutes at 3,500 rpm to separate the blood plasma. The plasma samples were stored at −20° C. The rats were fed 2 hours after administration.
The plasma concentration of the test compounds in rats after intragastric administration was determined by LC-MS/MS. Plasma samples were analyzed after pretreatment by protein precipitation.

The next series deals with SD rats. Nature of the series: Diuretic efficacy of ROMK inhibitors in SD rats. The series is classed as in vivo, rat. To be noted: for urinary sodium excretion increase compared with blank control group / urinary potassium compared with normal control group: 4 h; for urine output increase compared with blank control group: total urine in 4 h; for urinary potassium compared with normal control group / serum potassium change / serum sodium change: 0.03 and 0.1 mg/kg i.g. once; for serum potassium change / serum sodium change: P>0.05. The protocol:
The diuretic efficacy of compound 1 and positive control drug of ROMK inhibitor on SD rats was evaluated.
Male SD rats were purchased from SINO-BRITSH SIPPR/BK LAB. ANIMAL LTD., CO (Shanghai, China, Certificate No. 2008001647752, License SCXK (Shanghai) 2013-0016). The rats were 120-130 g, and fed at 5/cage, in a 12/12 hours light/dark cycle regulation, at a constant temperature of 23±1° C., humidity of 50˜60%, and free access to water and food. The male SD rats were acclimated to this condition for 7 days before their use in the diuresis experiment.
The experiment was carried out according to the method disclosed in PCT Patent Application Publication WO2010129379A1 After adaptive feeding, the rats were placed in metabolism cages and fasted overnight. The rats were weighed and randomly divided into the following groups: blank control group, compound 1 tested drug 0.03 mg/kg group and 0.1 mg/kg group, and the positive control group 0.03 mg/kg and group 0.1 mg/kg, with 10 rats for each group. Each rat was intragastrically administered each compound (ig, 1 ml/kg). The rats in the blank control group were fed with the corresponding solvent. After intragastric administration, the rats were placed in the normal cage. After 30 min, 25 ml/kg normal saline was given. Rats were put into the metabolic cages, and fasting for food and water began immediately. The total urine volume in 4 h was collected and measured. The urinary sodium and urinary potassium excretion in 4 h were also measured. The orbital serum was collected after the collection of urine to test the serum sodium and serum potassium concentrations.
The experimental data were expressed as mean±standard deviation (S.D.). The data was statistically compared using the t test of excel.

Series [2] in a line: Solubility observed when preparing the dosing formulation. It counts as physicochemical. The note with it: preparation of dosing formulation for the diuresis experiment. The text has this: In this experiment, the solubility of the test compound 1 was very good. There was no delamination phenomenon. […] After fully grinding, the solubility improved. […] Moreover, the effect was dose-dependent for each dose of the test compound 1 and the positive control drug.

The target in the next series is rat ROMK channel (Rattus norvegicus (Rat), UniProt P35560). Kind of series: FluxOR potassium ion channel assay, rat ROMK/HEK293 cells. It counts as cell-based. The text has this: (§1) The method described hereafter was used for determining the inhibitory activity of the present compounds on human ROMK and rat ROMK channels.
(5) Rat ROMK/HEK293 cell: HEK293 cell line transfected by rat ROMK cDNA (NCBI SEQ ID NO. NM-017023.1) stably expressing the ROMK channel
The above procedures were repeated, except for replacing human ROMK/HEK293 cells with rat ROMK/HEK 293 cells, to determine the inhibition IC50 of the present compounds on rat ROMK channel.
(§2) The inhibitory activity of the present compounds on human ROMK or rat ROMK channel was tested by the assay described above.

The target of the next series is human ROMK channel (Homo sapiens (Human), UniProt P48048). Nature of the series: FluxOR potassium ion channel assay, human ROMK/HEK293 cells. It counts as cell-based. The procedure: as §1
(1) FluxOR™ potassium ion channel assay (F10016, Invitrogen)
(3) FlexStation3 microplate reader (Molecular Devices)
(4) Human ROMK/HEK293 cell: HEK293 cell line stably expressing the ROMK channel transfected by human ROMK cDNA (NCBI SEQ ID NO. NM-000220.4)
as §2

human ROMK channel, sequence (P48048 whole entry): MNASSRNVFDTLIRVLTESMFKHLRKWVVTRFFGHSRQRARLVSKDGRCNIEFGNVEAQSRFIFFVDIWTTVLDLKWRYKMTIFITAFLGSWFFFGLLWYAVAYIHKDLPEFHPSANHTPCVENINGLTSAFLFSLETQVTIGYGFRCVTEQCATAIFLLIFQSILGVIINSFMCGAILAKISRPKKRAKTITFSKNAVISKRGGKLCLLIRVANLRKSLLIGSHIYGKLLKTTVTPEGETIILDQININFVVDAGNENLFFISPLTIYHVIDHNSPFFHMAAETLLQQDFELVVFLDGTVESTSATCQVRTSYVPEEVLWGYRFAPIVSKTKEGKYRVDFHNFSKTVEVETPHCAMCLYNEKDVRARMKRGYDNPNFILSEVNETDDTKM
rat ROMK channel, sequence (P35560 whole entry): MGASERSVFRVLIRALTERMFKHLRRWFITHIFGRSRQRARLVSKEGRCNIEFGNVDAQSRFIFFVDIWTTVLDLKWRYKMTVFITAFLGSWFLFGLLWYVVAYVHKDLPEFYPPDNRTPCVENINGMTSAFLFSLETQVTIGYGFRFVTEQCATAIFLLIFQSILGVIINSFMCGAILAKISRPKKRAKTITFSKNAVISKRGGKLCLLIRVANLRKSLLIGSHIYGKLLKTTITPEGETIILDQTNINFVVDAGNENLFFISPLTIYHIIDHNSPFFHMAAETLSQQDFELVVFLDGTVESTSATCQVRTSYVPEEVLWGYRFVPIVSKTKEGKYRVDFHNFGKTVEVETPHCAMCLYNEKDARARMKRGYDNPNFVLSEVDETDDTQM
ROMK potassium channel, sequence (P48048 whole entry): as the sequence (P48048 whole entry) above

In the case of `COc1cc(C(=O)NC2CCN(C[C@H](O)c3ccc4c(c3C)COC4=O)CC2)ncc1C#N` [Example 1, (R)-5-cyano-N-(1-(2-hydroxy-2-(4-methyl-1-oxo-1,3-dihydroisobenzofuran-5-yl)ethyl)piperidin-4-yl)-4-methoxypicolinamide], at ROMK potassium channel, the half-maximal inhibitory concentration (IC50) is 0.0187 µM. The Vd/F in series [1] (read-out: Apparent Distribution Volume Vz/F) came to 3.02 ± 0.841 L/kg. For the same compound, the AUC in series [1] (read-out: Area Under Curve AUC) was 9280 ± 3050 ng·h/mL. The CL/F in series [1] (read-out: Clearance CLz/F) was 9.82 ± 3.5 mL/min/kg. For the same compound, the mean residence time MRT in series [1] (read-out: Mean Residence Time MRT) turned out to be 5.51 ± 0.75 h. Besides, the Cmax in series [1] (read-out: Plasma Conc. Cmax) amounted to 1330 ± 388 ng/mL. In addition, in the series on SD rats (0.03 mg/kg i.g. once), the “urinary sodium excretion increase compared with blank control group” value (“urinary sodium excretion increase” below) came out at 3.12 times and the “urine output increase compared with blank control group” value (from here on “urine output increase”) is on record as 2.76 times. For the same compound, in the series with SD rats (0.1 mg/kg i.g. once), the “urinary sodium excretion increase” value is reported as 3.31 times and the “urine output increase” value is recorded as 3.22 times. In the series on SD rats, the “urinary potassium compared with normal control group” value was “slightly elevated, but not statistically significant”; the serum potassium change result is reported as “changed a little”; the serum sodium change result is on record as “changed a little”. The “solubility (in words)” value in series [2] was “very good”. Further, half-maximal inhibition against rat ROMK channel (IC50) was put at 0.192 µM. The half-inhibitory concentration (IC50) at human ROMK channel turned out to be 0.04 µM.

As to `CCOc1cc(C(=O)NC2CCN(C[C@H](O)c3ccc4c(c3C)COC4=O)CC2)ncc1C#N` [Example 2, (R)-5-cyano-4-ethoxy-N-(1-(2-hydroxy-2-(4-methyl-1-oxo-1,3-dihydroisobenzofuran-5-yl)ethyl)piperidin-4-yl)picolinamide], the results for the IC50 on rat ROMK channel and on human ROMK channel were 0.089 µM and 0.028 µM, respectively.

For the compound `Cc1cc(C(=O)NC2CCN(C[C@H](O)c3ccc4c(c3C)COC4=O)CC2)ncc1C#N` [positive control drug, reference compound], in the series on SD rats (0.03 mg/kg i.g. once), the “urinary sodium excretion increase” value is recorded as 1.57 times and the “urine output increase” value worked out at 1.41 times. Also, in the series on SD rats (0.1 mg/kg i.g. once), the “urinary sodium excretion increase” value came out at 1.65 times and the “urine output increase” value is given as 1.46 times. In the series on SD rats, the “urinary potassium compared with normal control group” value is on record as “slightly elevated, but not statistically significant”; the serum potassium change result is reported as “changed a little”; the serum sodium change entry is recorded as “changed a little”. Further, in series [2], the “solubility (in words)” value is “poor solubility”.

For orientation: IC50 means the midpoint of a concentration-inhibition curve. Low values mean inhibition by little substance, high ones a need for much substance. As a reminder, the AUC is the area under the concentration-time curve, a measure of exposure. By MRT is commonly meant a mean duration of stay, worked out from the concentration-time curve. Broadly, the Cmax is the highest concentration seen after dosing.

The values are drawn from patent publication US10364234B2, “Pyridinecarboxamide derivatives, preparation method thereof and pharmaceutical uses thereof” (Jiangsu Hengrui Medicine Co., Ltd., priority 2014, dated 2019).
